Reference: ChEMBL document CHEMBL1201862, “PubChem BioAssay data set” (2004)
Activity calls are given as the source filed them.

Legend:
[1] = Late stage assay provider results from the probe development effort to identify inhibitors of the Plasmodium falciparum M18 Aspartyl Aminopeptidase (M18AAP): radiolabel-based cell-based dose response assay to identify compounds that inhibit P. falciparum growth in RBCs, Set 2..; type: functional
[2] = molecular target: Luciferin 4-monooxygenase (Photinus pyralis, UniProt P08659); assay: Counter Screen for Luciferase-based Assay Positives. [Related pubchem assays: 620, 618, 411 ]
Luciferin 4-monooxygenase, sequence (P08659 whole entry): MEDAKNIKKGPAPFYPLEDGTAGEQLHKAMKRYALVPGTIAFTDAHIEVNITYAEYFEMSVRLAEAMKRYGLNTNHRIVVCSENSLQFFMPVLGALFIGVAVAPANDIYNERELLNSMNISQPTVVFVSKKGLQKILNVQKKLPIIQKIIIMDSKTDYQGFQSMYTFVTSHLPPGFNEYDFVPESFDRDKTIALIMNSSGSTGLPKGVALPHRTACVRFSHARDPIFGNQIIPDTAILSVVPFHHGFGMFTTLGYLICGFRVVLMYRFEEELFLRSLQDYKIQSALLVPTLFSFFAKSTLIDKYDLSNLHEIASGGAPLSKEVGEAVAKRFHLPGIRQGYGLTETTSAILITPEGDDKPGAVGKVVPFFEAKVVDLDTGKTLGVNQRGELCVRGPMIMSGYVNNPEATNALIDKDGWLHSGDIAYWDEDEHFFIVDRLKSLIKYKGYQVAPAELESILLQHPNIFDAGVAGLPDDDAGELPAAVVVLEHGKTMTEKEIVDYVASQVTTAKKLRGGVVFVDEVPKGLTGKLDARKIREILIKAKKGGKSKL

Escherichia coli = assay: microbe, parasite or virus in culture
[3] = viability loss in HepG2 hepatoma cells – cell-based, ATP luminescence, cherry-pick, activator set 2, cytotoxicity control, dose response (AID 1053143); type: functional
HT-1080 = assay: HT1080 cell viability loss – fluorescence readout (AID 620); type: functional, cell-based; conditions: Homo sapiens
[4] = molecular target: Dual specificity tyrosine-phosphorylation-regulated kinase 1A (Rattus norvegicus, UniProt Q63470); type: biochemical, Homo sapiens
[5] = viability loss in HEK293T cells – cell-based, CellTiter-Glo luminescence, dry powder, set 6, cytotoxicity control, dose response (AID 651949); type: functional; conditions: HEK293
Caspase-9 = Caspase-9 (Homo sapiens, UniProt P55211); assay: inhibitors of purified CASP9 protease – biochemical, fluorescence, plate reader, cherry-picked samples, selectivity assay for caspase-6 inhibitor project, dose response (AID 743293)
Caspase-9, sequence (P55211 1-315 limits assumed): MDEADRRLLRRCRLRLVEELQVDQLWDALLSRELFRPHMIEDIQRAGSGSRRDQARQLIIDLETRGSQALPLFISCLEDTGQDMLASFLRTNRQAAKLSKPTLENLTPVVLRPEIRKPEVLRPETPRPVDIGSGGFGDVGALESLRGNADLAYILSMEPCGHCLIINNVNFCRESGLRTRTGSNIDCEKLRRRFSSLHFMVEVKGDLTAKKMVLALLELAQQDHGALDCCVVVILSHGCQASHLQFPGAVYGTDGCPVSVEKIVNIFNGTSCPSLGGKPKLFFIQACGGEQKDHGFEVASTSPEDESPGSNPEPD
Caspase-9, sequence (P55211 331-416 limits assumed): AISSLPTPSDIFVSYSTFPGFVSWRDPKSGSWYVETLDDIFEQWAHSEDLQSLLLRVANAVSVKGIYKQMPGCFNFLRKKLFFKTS

[6] = molecular target: Eukaryotic translation initiation factor 4E (Mus musculus, UniProt P63073); assay: blockers of eIF4G binding by eIF4E – biochemical, TR-FRET, dose response (AID 855); type: functional;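 note: potency for disrupting eIF4E binding to eIF4GI seen as loss of FRET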
Eukaryotic translation initiation factor 4E, sequence (P63073 whole entry): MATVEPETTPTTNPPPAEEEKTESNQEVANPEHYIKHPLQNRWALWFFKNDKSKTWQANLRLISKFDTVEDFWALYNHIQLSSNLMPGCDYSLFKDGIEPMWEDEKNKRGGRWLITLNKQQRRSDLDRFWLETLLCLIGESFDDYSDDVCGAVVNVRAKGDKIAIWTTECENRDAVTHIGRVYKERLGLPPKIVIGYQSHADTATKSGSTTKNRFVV

[7] = molecular target: Induced myeloid leukemia cell differentiation protein Mcl-1 (Homo sapiens, UniProt Q07820); type: functional
Induced myeloid leukemia cell differentiation protein Mcl-1, sequence (Q07820 whole entry): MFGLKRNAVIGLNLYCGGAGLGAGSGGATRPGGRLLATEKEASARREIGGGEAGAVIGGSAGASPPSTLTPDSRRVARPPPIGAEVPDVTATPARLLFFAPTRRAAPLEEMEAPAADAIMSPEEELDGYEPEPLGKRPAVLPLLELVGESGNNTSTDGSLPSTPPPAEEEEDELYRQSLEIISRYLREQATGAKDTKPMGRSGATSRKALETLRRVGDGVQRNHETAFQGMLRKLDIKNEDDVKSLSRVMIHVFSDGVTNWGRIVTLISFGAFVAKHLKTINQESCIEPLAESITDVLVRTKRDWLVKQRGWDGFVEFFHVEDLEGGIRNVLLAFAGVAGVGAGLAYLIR

Caspase-6 = molecular target: T1, Caspase-6 (Homo sapiens, UniProt P55212); assay: inhibition of CASP6 peptide cleavage – biochemical, VEID-R110 fluorescence, cherry-pick, dose response (AID 720632)
T1 sequence (P55212 whole entry): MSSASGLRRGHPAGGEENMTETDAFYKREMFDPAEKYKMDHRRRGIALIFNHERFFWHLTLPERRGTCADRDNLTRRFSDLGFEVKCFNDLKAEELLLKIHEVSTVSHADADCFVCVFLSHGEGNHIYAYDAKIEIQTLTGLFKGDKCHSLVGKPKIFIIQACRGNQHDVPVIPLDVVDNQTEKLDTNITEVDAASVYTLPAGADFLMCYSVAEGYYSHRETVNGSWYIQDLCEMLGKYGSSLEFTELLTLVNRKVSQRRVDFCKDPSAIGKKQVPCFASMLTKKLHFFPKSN

Caspase-7 = Caspase-7 (Homo sapiens, UniProt P55210); assay: caspase-7 enzyme inhibition, selectivity check – biochemical, DEVD-R110 fluorescence, cherry-pick, selectivity assay for caspase-6 inhibitor project, dose response (AID 743295); type: functional
Caspase-7, sequence (P55210 24-198 limits assumed): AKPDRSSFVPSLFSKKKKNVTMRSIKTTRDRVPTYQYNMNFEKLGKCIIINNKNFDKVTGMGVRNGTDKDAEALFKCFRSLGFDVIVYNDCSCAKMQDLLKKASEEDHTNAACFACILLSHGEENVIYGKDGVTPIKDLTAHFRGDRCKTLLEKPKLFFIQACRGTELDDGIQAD
Caspase-7, sequence (P55210 207-303 limits assumed): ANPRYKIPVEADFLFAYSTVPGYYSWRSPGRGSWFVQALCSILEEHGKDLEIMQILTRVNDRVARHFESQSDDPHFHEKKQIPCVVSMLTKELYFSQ

Ephrin type-A receptor 4 = Ephrin type-A receptor 4 (Mus musculus, UniProt Q03137); assay: EphA4 ligand-binding antagonists – biochemical, colorimetric, mouse EphA4, primary screen (AID 689); type: functional
Ephrin type-A receptor 4, sequence (Q03137 whole entry): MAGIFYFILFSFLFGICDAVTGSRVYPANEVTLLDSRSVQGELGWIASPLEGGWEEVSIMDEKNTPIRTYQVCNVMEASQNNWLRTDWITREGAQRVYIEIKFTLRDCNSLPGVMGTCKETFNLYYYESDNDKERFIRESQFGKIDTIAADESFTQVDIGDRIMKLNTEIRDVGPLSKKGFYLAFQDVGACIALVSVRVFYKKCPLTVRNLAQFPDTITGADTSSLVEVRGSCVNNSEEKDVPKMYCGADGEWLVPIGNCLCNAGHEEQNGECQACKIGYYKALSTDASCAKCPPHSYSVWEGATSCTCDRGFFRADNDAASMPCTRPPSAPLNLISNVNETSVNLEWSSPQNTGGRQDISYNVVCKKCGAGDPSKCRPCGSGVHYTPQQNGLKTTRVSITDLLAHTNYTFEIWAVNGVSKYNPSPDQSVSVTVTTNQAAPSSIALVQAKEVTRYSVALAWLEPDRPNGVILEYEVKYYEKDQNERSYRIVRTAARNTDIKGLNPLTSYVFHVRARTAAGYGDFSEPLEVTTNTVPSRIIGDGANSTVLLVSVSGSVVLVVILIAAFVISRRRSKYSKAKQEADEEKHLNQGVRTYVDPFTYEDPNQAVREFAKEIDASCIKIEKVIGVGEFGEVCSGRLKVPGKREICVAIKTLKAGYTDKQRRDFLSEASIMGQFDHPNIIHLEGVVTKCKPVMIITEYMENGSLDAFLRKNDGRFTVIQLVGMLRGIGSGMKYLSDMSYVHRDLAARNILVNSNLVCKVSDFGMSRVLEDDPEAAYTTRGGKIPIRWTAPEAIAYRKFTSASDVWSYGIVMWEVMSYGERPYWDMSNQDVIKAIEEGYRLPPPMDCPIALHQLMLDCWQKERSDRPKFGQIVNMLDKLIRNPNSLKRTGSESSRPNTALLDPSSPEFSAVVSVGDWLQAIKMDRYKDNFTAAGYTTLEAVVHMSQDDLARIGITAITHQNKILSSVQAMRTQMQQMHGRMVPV

Caspase-8 = Caspase-8 (Homo sapiens, UniProt Q14790); assay: inhibitors of purified CASP8 protease – biochemical, Z-IETD-R110 fluorescence, cherry-picked samples, selectivity assay for caspase-6 inhibitor project, dose response (AID 743294)
Caspase-8, sequence (Q14790 217-374 limits assumed): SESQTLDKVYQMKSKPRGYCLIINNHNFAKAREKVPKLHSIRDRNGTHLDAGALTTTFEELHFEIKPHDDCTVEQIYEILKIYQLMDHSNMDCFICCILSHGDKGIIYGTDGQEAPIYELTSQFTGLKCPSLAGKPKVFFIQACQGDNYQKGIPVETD
Caspase-8, sequence (Q14790 385-479 limits assumed): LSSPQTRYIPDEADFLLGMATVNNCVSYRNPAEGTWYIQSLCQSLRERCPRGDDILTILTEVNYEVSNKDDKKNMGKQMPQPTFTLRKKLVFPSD

[8] = HeLa cell viability loss – plate reader, dry powder, cytotoxicity control, dose response (AID 651946); type: functional, cell-based
[9] = inhibitors of non-replicating M. tuberculosis, dose response, luciferase, dry powder (AID 651620); type: functional; conditions: Mycobacterium tuberculosis
[10] = HepG2 hepatoma cell viability loss – plate reader, dry powder, cytotoxicity control, dose response (AID 651947); type: functional, cell-based
[11] = inhibitors of non-replicating M. tuberculosis, dose response, luciferase, dry powder (AID 651619); type: functional; conditions: Mycobacterium tuberculosis
[12] = growth inhibition of replicating M. tuberculosis, dose response, counter-screen, dry powder, IC90 (AID 651617); type: functional; conditions: Mycobacterium tuberculosis
[13] = PAX5 cellular inhibition readout – cell-based, plate reader, dry powder samples, selectivity assay for PAX8 inhibitor project, dose response (AID 743047); type: functional;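 note: HEK293 cells carrying a Pax5 driven CD19 promoter luciferase reporter; potency of inhibitors that lower reporter luminescence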
[14] = OV-90 cell viability loss – plate reader, dry powder, SA8, PAX8 inhibitor project, dose response (AID 743149); type: functional, cell-based
Paired box protein Pax-8 = Paired box protein Pax-8 (Homo sapiens, UniProt Q06710); assay: PAX8 transcriptional activity inhibition in RMG-I – RMG-I cells, luciferase, cherry-pick, dose response (AID 687027); type: functional, cell-based;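 note: luciferase reporter driven by Pax8 target thyroperoxidase promoter measured by SteadyGlo luminescence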
Paired box protein Pax-8, sequence (Q06710 whole entry): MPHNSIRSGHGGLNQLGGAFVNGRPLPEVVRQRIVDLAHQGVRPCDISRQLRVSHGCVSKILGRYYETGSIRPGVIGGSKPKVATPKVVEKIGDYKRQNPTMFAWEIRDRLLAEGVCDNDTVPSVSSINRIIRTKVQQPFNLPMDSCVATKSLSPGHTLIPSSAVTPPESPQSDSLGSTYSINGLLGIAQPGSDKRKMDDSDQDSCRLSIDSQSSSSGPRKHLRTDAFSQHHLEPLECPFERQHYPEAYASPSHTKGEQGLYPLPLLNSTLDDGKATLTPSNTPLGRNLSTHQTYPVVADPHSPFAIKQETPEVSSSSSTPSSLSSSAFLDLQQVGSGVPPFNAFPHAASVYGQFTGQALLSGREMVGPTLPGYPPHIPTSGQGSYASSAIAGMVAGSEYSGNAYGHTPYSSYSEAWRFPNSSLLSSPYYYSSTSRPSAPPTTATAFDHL

[15] = inhibitors acting on PAX2 in cells – cell-based, plate reader, dry powder samples, selectivity assay for PAX8 inhibitor project, dose response (AID 743048); type: functional;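 note: HEK293 cells carrying a WT1 promoter luciferase reporter driven by expressed Pax2; potency is for inhibition of Pax2 driven reporter signal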
[16] = PAX8-dependent cell viability loss – plate reader, dry powder, dose response (AID 743049); type: functional, cell-based
[17] = OVCAR-3 cell viability loss – plate reader, dry powder samples, PAX8 inhibitor project, dose response (AID 743044); type: functional, cell-based
[18] = OVCAR4 cell viability loss – plate reader, dry powder, SA11, cytotoxicity control for PAX8 inhibitor project, dose response (AID 743150); type: functional, cell-based; conditions: OVCAR-4
[19] = OVCAR8 cell viability loss – plate reader, dry powder samples, PAX8 project, dose response (AID 743197); type: functional, cell-based; conditions: OVCAR-8
[20] = COV362 cell viability loss – plate reader, dry powder, SA12, cytotoxicity control for PAX8 inhibitor project, dose response (AID 743144); type: functional, cell-based
[21] = COV434 cell viability loss – plate reader, dry powder, SA7, cytotoxicity control for PAX8 inhibitor project, dose response (AID 743145); type: functional, cell-based
[22] = growth inhibition of yeast DHODH-expressing 3D7 parasites – SYBR Green, dry powder samples, dose response (AID 1159570); type: functional, cell-based;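 note: parasite growth measured after 72 hours of compound exposure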
[23] = P. falciparum Dd2 growth inhibitors, dose response, SYBR Green, cherry-picked samples (AID 1159567); type: functional, cell-based
[24] = growth inhibition of PfATP4-mutant resistant parasites – NITD609-resistant line, SYBR Green, dry powder, dose response (AID 1159571); type: functional, cell-based;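 note: parasites synchronized at ring stage by sorbitol before testing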
[25] = HEK293 Cytotoxicity Assay Measured in Cell-Based System Using Plate Reader - 7071-01_Inhibitor_Dose_CherryPick_Activity_Set2.; type: functional
[26] = Dd2 malaria parasite growth inhibition potency – SYBR Green, dry powder samples, dose response (AID 1159566); type: functional, cell-based;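 note: potency for growth inhibition with lower SYBR green DNA signal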
HEK293 = assay: viability loss in HEK293T cells – cell-based, ATP luminescence, cherry-pick samples, cytotoxicity control, dose response (AID 687005); type: functional; conditions: Homo sapiens;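 note: cells exposed to compound for 48 hours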
[27] = molecular target: T2, Rac GTPase-activating protein 1 (Homo sapiens, UniProt Q9H0H5); assay: blockers of MgcRacGAP-driven Rac1 GTP hydrolysis – biochemical, ADP Hunter fluorescence, primary and confirmatory, confirmation (AID 624330); type: functional
T2 sequence (Q9H0H5 whole entry): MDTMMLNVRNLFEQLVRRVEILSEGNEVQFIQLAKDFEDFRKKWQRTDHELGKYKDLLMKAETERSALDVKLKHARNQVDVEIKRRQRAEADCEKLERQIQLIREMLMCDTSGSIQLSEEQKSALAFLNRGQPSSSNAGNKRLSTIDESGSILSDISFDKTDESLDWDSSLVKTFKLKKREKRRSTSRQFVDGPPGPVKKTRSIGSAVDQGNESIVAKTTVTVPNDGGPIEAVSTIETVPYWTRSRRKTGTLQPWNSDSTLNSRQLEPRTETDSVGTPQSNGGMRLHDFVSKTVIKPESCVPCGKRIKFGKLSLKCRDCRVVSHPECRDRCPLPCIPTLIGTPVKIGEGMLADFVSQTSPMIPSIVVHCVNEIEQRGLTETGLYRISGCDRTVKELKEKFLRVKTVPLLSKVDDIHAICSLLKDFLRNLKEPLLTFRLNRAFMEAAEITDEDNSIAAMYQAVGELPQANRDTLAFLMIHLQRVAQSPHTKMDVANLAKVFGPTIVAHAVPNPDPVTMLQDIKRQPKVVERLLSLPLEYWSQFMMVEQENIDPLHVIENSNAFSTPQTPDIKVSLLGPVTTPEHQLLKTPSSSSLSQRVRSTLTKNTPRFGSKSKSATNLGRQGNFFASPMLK

Beta Lactamase = Beta Lactamase (Pseudomonas aeruginosa, UniProt Q932Y6); assay: BLA reporter interference, concentration series – BLA reporter cells, FRET fluorescence, artefact control for TLR9-MyD88 binding inhibitor project, dose response (AID 588341); type: cell-based;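 note: cell based assay in CHO-K1 cells stably expressing beta-lactamase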
Beta Lactamase, sequence (Q932Y6 whole entry, the tested form may be a part): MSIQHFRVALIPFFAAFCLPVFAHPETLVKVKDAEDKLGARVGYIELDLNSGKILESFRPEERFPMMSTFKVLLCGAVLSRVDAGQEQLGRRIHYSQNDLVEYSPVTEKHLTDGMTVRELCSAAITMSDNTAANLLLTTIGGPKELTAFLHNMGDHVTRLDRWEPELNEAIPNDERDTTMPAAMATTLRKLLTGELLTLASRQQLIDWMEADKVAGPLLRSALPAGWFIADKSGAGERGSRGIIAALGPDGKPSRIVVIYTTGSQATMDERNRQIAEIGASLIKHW

CHO = CHO cell viability loss, potency – luminescence, cytotoxicity control for TLR9-MyD88 binding inhibitor project, dose response (AID 588339); type: functional, cell-based, hamster; conditions: Cricetulus griseus;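 note: CHO cells stably coexpressing TLR9 and MyD88 fusions from primary screen; compound exposure lasted 48 hours before viability readout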
NS3 = NS3 (Hepatitis C virus, UniProt A3EZJ3); assay: NS3h DNA-binding inhibition IC50 – biochemical, fluorescence polarization, ChemBridge library, dose response (AID 743264)
NS3, sequence (A3EZJ3 whole entry): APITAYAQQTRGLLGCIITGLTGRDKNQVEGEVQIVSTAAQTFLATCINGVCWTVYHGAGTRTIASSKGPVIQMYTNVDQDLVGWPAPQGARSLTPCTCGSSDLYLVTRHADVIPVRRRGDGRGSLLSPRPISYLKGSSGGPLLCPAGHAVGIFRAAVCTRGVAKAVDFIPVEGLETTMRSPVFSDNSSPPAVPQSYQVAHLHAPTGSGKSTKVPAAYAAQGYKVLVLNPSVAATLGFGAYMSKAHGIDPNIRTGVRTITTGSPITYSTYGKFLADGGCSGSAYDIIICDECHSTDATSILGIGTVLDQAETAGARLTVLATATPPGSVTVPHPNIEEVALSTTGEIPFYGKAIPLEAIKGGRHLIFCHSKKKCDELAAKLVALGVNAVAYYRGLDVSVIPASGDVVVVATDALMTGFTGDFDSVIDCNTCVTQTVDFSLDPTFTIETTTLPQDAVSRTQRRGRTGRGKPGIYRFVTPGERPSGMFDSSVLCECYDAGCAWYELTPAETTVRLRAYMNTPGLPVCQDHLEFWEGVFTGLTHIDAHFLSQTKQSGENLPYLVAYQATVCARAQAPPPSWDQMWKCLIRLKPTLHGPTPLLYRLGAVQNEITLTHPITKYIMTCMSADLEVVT

With Oc1ccc(CCNc2ccnc3ccccc23)cc1O the IC50 [1] was 3.9 µM (active).

For Nc1ccc(C(=O)Nc2nc3ccccc3s2)cc1, the EC50 [2] was 0.32 µM (active), the AC50 (Escherichia coli) was 47.5 µM (active) and the AC50 [3] was 26 µM (active). For the same compound, the EC50 (HT-1080) was > 50 µM (not active) and the AC50 [4] was 4.15 µM (active).

With CN(Cc1ccccc1)c1nnc(-c2ccccc2)o1 the AC50 [5] was > 52 µM (inactive).

With COc1ccc(S(=O)(=O)Nc2cc(Sc3nc[nH]n3)c(O)c3ccccc23)cc1 the AC50 (Caspase-9) was 31.6 µM (active), the IC50 [6] was > 64 µM (inactive) and the IC50 [7] was 7.73 µM (active). The AC50 (Caspase-6) was 0.998 µM (active), the AC50 (Caspase-7) was 8.7 µM (active) and the IC50 (Ephrin type-A receptor 4) was 6.77 µM (active). The AC50 (Caspase-8) was 22 µM (active).

In the case of [O-][S+](Cc1cn(Cc2ccccc2)nn1)c1nnc(-c2ccc(Cl)cc2)o1 (centres undefined), the AC50 [8] is reported as 24.2 µM (active), the IC90 [9] is reported as 2 µM (active) and the AC50 [10] is reported as 19.6 µM (active). For the same compound, the IC90 [11] was 2 µM (active) and the IC90 [12] was 125 µM (active).

For C[C@@H]1CN([C@@H](C)CO)C(=O)Cc2cc(NS(=O)(=O)c3ccccc3)ccc2O[C@H]1CN(C)Cc1ccc(C(F)(F)F)cc1, the AC50 [13] was 18.8 µM (active), the AC50 [14] was 28.5 µM (active) and the AC50 (Paired box protein Pax-8) was 6.03 µM (active). For the same compound, the AC50 [15] was 17 µM (active), the AC50 [16] was 11.1 µM (active) and the AC50 [17] was 23.4 µM (active). The AC50 [18] was 45.6 µM (active), the AC50 [19] was 23.9 µM (active) and the AC50 [20] was 31.6 µM (active). For the same compound, the AC50 [21] was 32.6 µM (active).

With COc1ccc(C#Cc2ccc3c(c2)O[C@H](CN(C)C(=O)Nc2cccc(OC)c2)[C@H](C)CN([C@@H](C)CO)S3(=O)=O)cc1 the AC50 [22] was 2.21 µM (active), the AC50 [23] was 1.46 µM (active) and the AC50 [24] was 1.69 µM (active). For the same compound, the AC50 [25] was 26.3 µM (active), the AC50 [26] was 1.06 µM (active) and the AC50 (HEK293) was 26.3 µM (active).

With O=C1C=CC(=O)N1c1ccccc1N1C(=O)C=CC1=O the IC50 [27] was 62.2 µM (active), the IC50 (Beta Lactamase) was 13.6 µM (inactive) and the IC50 (CHO) was 2.55 µM (active). For the same compound, the IC50 (NS3) was 34.9 µM (inactive).
